The values below are quoted from earlier work in US6025374A, “Azetidine, pyrrolidine and piperidine derivatives as 5HT1 receptor agonists” (Merck Sharp & Dohme, Ltd., priority 1994, dated 2000).

For this series the following is noted: therapeutic doses; literature.

With `CNS(=O)(=O)Cc1ccc2[nH]cc(CCN(C)C)c2c1` [sumatriptan], the “adverse events in humans” value is reported as “certain adverse cardiovascular events”.
